EC50 data for 4 compounds are collected here from patent US20160362416A1, “ANTIVIRAL COMPOUNDS” (Gilead Sciences, Inc., priority 2012, published 2016).

The test system of assay [1] is Y93H in genotype 1a NS5A replicon. As to the kind of experiment: Resistance mutant replicon assay, genotype 1a NS5A Y93H. It counts as cell-based, HCV. The settings on record: Hepatitis C virus, read-out: 1a Y93H (nM). As to the method:
(§1) Evaluation of cell-based anti-HCV activity: Antiviral potency (EC50) was determined using a Renilla luciferase (RLuc)-based HCV replicon reporter assay. To perform the assay for genotype 1 and 2a JFH-1, stable HCV 1a RLuc replicon cells (harboring a dicistronic genotype 1a H77 replicon that encodes a RLuc reporter), stable HCV lb RLuc replicon cells (harboring a dicistronic genotype 1b Conl replicon that encodes a RLuc reporter), or stable HCV 2a JFH-1 Rluc replicon cells (harboring a dicistronic genotype 2a JFH-1 replicon that encodes a RLuc reporter; with L31 present in NS5A) were dispensed into 384-well plates for EC50 assays. To perform the assay for genotype 2a (with M31 present in NS5A) or 2b, NS5A chimeric genotype 2a JFH-1 replicons that encodes a RLuc-Neo reporter and either genotype 2a J6 strain NS5A gene or genotype 2b MD2b-1 strain NS5A gene (both with M31 present) respectively, were either transiently transfected (t) into Huh-Lunet cells or were established as stably replicating replicon cells (s) is provided. Either cells were dispensed into 384-well plates for EC50 assays. To perform the assay for genotype 3 and 4, NS5A chimeric genotype 1b Conl replicons that encodes a Pi-RLuc reporter and either genotype 3a S52 strain NS5A gene or genotype 4a ED43 strain NS5A gene respectively, were transiently transfected (t) into Huh-Lunet cells, which were subsequently dispensed into 384-well plates. Compounds were dissolved in DMSO at a concentration of 10 mM and diluted in DMSO either manually or using an automated pipeting instrument. Serially 3-fold diluted compounds were either manually mixed with cell culture media and added to the seeded cells or directly added to the cells using an automated instrument. DMSO was used as a negative (solvent; no inhibition) control, and the protease inhibitor ITMN-191 was included at a concentration >100×EC50 as a positive control. 72 hours later, cells were lysed and Renilla luciferase activity quantified as recommended by the manufacturer (Promega-Madison, Wis.). Non-linear regression was performed to calculate EC50 values.
(§2) To determine the antiviral potency (EC50) against resistance mutants, resistance mutations, including M28T, Q30R, Q30H, Q30E, L31M, Y93C, Y93H, and Y93N in genotype 1a NS5A, Y93H and L31V/Y93H in genotype 1b NS5A, and Y93H for in genotype 3a NS5A, were introduced individually into either 1a Pi-Rluc or 1b Pi-Rluc replicons by site directed mutagenesis. Replicon RNA of each resistant mutant was transiently transfected into Huh-7-derived cured-51 cells and antiviral potency was determined on these transfected cells as described above.
Background: A replicon is a self-replicating genome or part of one, used to study replication in cells.

Assay [2] deals with Y93N in genotype 1a NS5A replicon. Nature of the assay: Resistance mutant replicon assay, genotype 1a NS5A Y93N. Type of assay: cell-based, HCV. The settings on record: Hepatitis C virus, read-out: 1a Y93N (nM). The method, then:
as §1, §2

For assay [3], the system named is NS5A chimeric genotype 1b Con1 replicon with genotype 3a S52 strain NS5A gene. Nature of the assay: HCV genotype 3a NS5A chimeric replicon assay. The settings on record: Hepatitis C virus, 72 h, read-out: 3a (nM). Type of assay: cell-based. Put shortly: (§3)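 Chimeric replicons for 3a and 4a use a Pi-RLuc reporter and were transiently transfected into Huh-Lunet cells; the 2b chimera (RLuc-Neo) was likewise transient in Huh-Lunet; 1b cells are stable. Cells were exposed to 3-fold serial compound dilutions for 72 h, then lysed. EC50s came from non-linear regression of Renilla luciferase signal.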

Assay [4] has as its system Q30E in genotype 1a NS5A replicon. Nature of the assay: Resistance mutant replicon assay, genotype 1a NS5A Q30E. The settings on record: Hepatitis C virus, read-out: 1a Q30E (nM). It counts as cell-based, HCV. As to the method: as §1, §2
Assay [5] concerns stable HCV 1b RLuc replicon cells (genotype 1b Con1 replicon). Nature of the assay: HCV genotype 1b RLuc replicon reporter assay. It counts as cell-based. The settings on record: Hepatitis C virus; stable genotype 1b Con1 RLuc replicon cells, 72 hours. Put shortly: as §3
Assay [6] relates to stable HCV 1a RLuc replicon cells (genotype 1a H77 replicon). Nature of the assay: HCV genotype 1a RLuc replicon reporter assay. The settings on record: Hepatitis C virus; stable genotype 1a H77 RLuc replicon cells, 72 hours. It counts as cell-based.
The test system of assay [7] is NS5A chimeric genotype 2a JFH-1 replicon with genotype 2b MD2b-1 strain NS5A gene (M31). Nature of the assay: HCV genotype 2b NS5A chimeric replicon assay, stable (s). The settings on record: Hepatitis C virus, 72 h, read-out: 2b (s) (nM). It counts as cell-based.
Assay [8] concerns NS5A chimeric genotype 1b Con1 replicon with genotype 4a ED43 strain NS5A gene. As to the kind of experiment: HCV genotype 4a NS5A chimeric replicon assay. Type of assay: cell-based. The conditions noted are these: Hepatitis C virus, 72 h, read-out: 4a (s) (nM).
Assay [9] has as its system Y93H in genotype 3a NS5A replicon. As to the kind of experiment: Resistance mutant replicon assay, genotype 3a NS5A Y93H. The settings on record: Hepatitis C virus, read-out: 3a Y93H (nM). Type of assay: cell-based, HCV. The method, then: as §1, §2
In assay [10] the test system is NS5A chimeric genotype 2a JFH-1 replicon with genotype 2a J6 strain NS5A gene (M31). Nature of the assay: HCV genotype 2a J6 NS5A chimeric replicon assay, transient (t). The settings on record: Hepatitis C virus, 72 h, read-out: 2a J6 (t) (nM). Type of assay: cell-based.
Assay [11] relates to stable HCV 2a JFH-1 Rluc replicon cells (L31 present in NS5A). Nature of the assay: HCV genotype 2a JFH-1 RLuc replicon reporter assay. It counts as cell-based. The settings on record: Hepatitis C virus, 72 h, read-out: 2a JFH (nM).
For assay [12], the system named is NS5A chimeric genotype 2a JFH-1 replicon with genotype 2b MD2b-1 strain NS5A gene (M31). Nature of the assay: HCV genotype 2b NS5A chimeric replicon assay, transient (t). Type of assay: cell-based. The conditions noted are these: Hepatitis C virus, 72 h, read-out: 2b (t) (nM). The method, then:
as §1

For the compound `COC(=O)N[C@H](C(=O)N1[C@H](c2ncc(-c3ccc4c(c3)COc3cc5c(ccc6nc([C@@H]7CC[C@H](C)N7C(=O)[C@@H](NC(=O)OC)C7CCOCC7)[nH]c65)cc3-4)[nH]2)C[C@@H]2CCC[C@@H]21)C(C)C` [Comp 8, reference compound], the EC50 in assay [1] stood at 1.9 nM; in [2], 4.58 nM; in [3], 0.071 nM; in assay [4], 0.979 nM; in assay [5] it was 0.04 nM; in [6], 0.028 nM. Moreover, the EC50 in assay [7] came to 0.113 nM.

`COC(=O)N[C@H](C(=O)N1[C@@H](C)CC[C@H]1c1ncc(-c2ccc3c(c2)COc2cc4c(ccc5nc([C@@H]6C[C@H](C)CN6C(=O)[C@@H](NC(=O)OC)C6CCOCC6)[nH]c54)cc2-3)[nH]1)C(C)C` [Comp 13, reference compound]: the EC50 is 1.07 nM in assay [1]; 4.4 nM in [8]; 2.13 nM in [2]; 0.371 nM in assay [4]; 0.048 nM in assay [5]; 4.4 nM in [9]. The EC50 in assay [6] amounted to 0.025 nM; in [7], 0.048 nM.

On to `CC[C@H]1C[C@@H](c2ncc(-c3ccc4c(c3)COc3cc5c(ccc6nc([C@@H]7CC[C@H](C)N7C(=O)[C@@H](NC(=O)OC)C(C)C)[nH]c65)cc3-4)[nH]2)N(C(=O)[C@@H](NC(=O)OC)C2C[C@@H](C)O[C@H](C)C2)C1` (stereo partly drawn) [Example AE, Methyl [(1S)-1-[(2R,6R)-2,6-dimethyltetrahydro-2H-pyran-4-yl]-2-{(2S,4S)-4-ethyl-2-[5-(2-{(2S,5S)-1-[N-(methoxycarbonyl)-L-valyl]-5-methylpyrrolidin-2-yl}-1,11-dihydroisochromeno[4′,3′:6,7]naphtho[1,2-d]imidazol-9-yl)-1H-imidazol-2-yl]pyrrolidin-1-yl}-2-oxoethyl]carbamate], for which the EC50 was 0.23 nM in [1]; 0.011 nM in assay [8]; 1.12 nM in assay [2]; 0.042 nM in assay [10]; 0.027 nM in assay [3]; 0.022 nM in assay [5]. Also, the EC50 in assay [9] came to 6.93 nM; in [11], 0.012 nM; in assay [12], 0.038 nM; in assay [6] it was 0.024 nM.

Take `COC(=O)N[C@H](C(=O)N1[C@H](c2nc3ccc4cc5c(cc4c3[nH]2)OCc2cc(-c3cnc([C@@H]4CC[C@H](C)N4C(=O)[C@@H](NC(=O)OC)C4C[C@@H](C)O[C@H](C)C4)[nH]3)ccc2-5)C[C@@H]2CCC[C@@H]21)C(C)C` (stereo partly drawn) [Example BI, methyl{(2S)-1-[(2S,3aS,6aS)-2-(9-{2-[(2S,5S)-1-{(2S)-2-[(2R,6R)-2,6-dimethyltetrahydro-2H-pyran-4-yl]-2-[(methoxycarbonyl)amino]acetyl}-5-methylpyrrolidin-2-yl]-1H-imidazol-5-yl}-1,11-dihydroisochromeno[4′,3′:6,7]naphtho[1,2-d]imidazol-2-yl)hexahydrocyclopenta[b]pyrrol-1(2H)-yl]-3-methyl-1-oxobutan-2-yl}carbamate]: the EC50 in assay [1] came to 0.184 nM; in assay [8], 0.011 nM; in assay [2], 0.466 nM; in [10], 0.022 nM; in assay [3], 0.017 nM; in assay [5], 0.024 nM. In addition, the EC50 came out at 3.45 nM in assay [9], 0.011 nM in [11], 0.012 nM in [6] and 0.033 nM in assay [7].
